Results: patent publication US20230365624A1, “NOVEL ANGIOTENSIN I-CONVERTING ENZYME (ACE) INHIBITORY PEPTIDES” (Thai Union Group Public Company Limited, priority 2020, published 2023)
No end group written: not given here.

Test system: GI enzymes (pepsin and pancreatin)
Test: In vitro gastrointestinal (GI) digestion of synthetic peptides, with ACE inhibitory activity and α-amino group content before and after
Assay type: in vitro ADME
Conditions: pepsin pH 2.0, 37° C., 1 h, then pancreatin pH 7.5, 37° C., 2 h (FIG. 6)
Procedure: It is necessary for ACE inhibitory peptides to retain its activity in GI tract so that it can be absorbed into the bloodstream, where the peptide inhibitors can show their hypotensive effect. In vitro gastrointestinal digestion provides an easy process to imitate antihypertensive activity of peptides under oral administration. […] In vitro GI digestion was simulated according to the method of Zhu et al. (2008) with some modifications. One milligram of each sample was dissolved in 0.5 ml of 0.1 M KCl-HCl, and the pH was adjusted to 2.0 with 6 M HCl. Pepsin (1% enzyme/substrate, w/w) was added, and the mixture was incubated in a shaking water bath at 37° C. for 1 h, and the pH was then adjusted to pH 7.5. […] ACE inhibitory activity and α-amino groups content of the peptides before and after in vitro GI digestion were measured. […]
ACE inhibitory activity assay was carried out according to the methods of Cushman and Cheung (1971) and Wu et al. (2002) with some modifications. […] Absorbance was measured at 228 nm. The percentage of ACE inhibition was calculated as follows: […]
Content of α-amino groups was performed according to Adler-Nissen (1979). […] The mixture was left at room temperature for 30 min before an absorbance at 420 nm was monitored. […] The content of α-amino groups was expressed as leucine equivalents.

With VSVVQYSR [VSVVQYSR] the “Decrease of ACE inhibitory activity after GI digestion” value was ~19%.
